Results reported in US8710091B2, “Imidazolidine-2,4-dione derivatives, and use thereof as a cancer drug” (Ipsen Pharma S.A.S., priority 2009, dated 2014).
pIC50: −log10 of the molar value.

Assays:
Assay type in all cases: cell-based
androgen receptor = biological target: T1, androgen receptor (Homo sapiens, UniProt P10275, T878A); assay: Measurement of the disappearance of the androgen receptor (Western blot, LNCaP cells); conditions: 72 hours after treatment
T1 construct: The LNCaP cell type (ATCC, 1740) originating from a prostate carcinoma expressing the androgen receptor; host or cells: LNCaP
T1 sequence (P10275 1-920 T878A): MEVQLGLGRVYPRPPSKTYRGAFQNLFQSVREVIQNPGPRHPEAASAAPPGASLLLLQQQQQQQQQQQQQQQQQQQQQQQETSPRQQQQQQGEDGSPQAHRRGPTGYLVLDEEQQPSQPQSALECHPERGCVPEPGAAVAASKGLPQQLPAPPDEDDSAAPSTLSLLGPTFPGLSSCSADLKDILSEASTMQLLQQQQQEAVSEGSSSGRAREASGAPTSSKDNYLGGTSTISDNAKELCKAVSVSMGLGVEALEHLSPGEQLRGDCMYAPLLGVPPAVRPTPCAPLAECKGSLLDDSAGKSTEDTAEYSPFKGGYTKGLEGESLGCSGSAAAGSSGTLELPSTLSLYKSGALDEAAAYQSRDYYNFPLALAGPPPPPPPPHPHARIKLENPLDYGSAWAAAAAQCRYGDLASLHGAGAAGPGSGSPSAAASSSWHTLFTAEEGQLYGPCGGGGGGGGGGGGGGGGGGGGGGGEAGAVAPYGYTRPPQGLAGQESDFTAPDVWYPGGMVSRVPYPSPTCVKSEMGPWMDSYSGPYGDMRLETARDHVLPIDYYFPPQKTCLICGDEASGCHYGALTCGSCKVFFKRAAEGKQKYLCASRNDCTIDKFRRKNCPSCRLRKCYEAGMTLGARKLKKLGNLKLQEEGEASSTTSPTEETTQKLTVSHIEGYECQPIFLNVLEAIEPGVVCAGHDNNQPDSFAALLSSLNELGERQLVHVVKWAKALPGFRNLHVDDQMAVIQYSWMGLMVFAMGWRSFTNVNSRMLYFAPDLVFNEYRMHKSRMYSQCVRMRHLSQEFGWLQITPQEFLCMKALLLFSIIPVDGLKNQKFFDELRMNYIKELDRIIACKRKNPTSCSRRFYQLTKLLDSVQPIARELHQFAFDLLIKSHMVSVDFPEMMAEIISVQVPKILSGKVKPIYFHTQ
Experimental: The cells of the LNCaP line are seeded at a rate of 2.5 millions of cells per 10 cm Petri dish in RPMI, 10% of foetal calf serum, 2 mM of glutamine, 100 U/ml of penicillin, 0.1 mg/ml of streptomycin and 0.01M HEPES, 1 mM of sodium pyruvate, 40% of D-glucose. 4 days later, the cells are treated with the compound to be tested. 72 hours after the treatment the cells are lyzed in lysis buffer (50 mM Tris pH 7.4, 150 mM NaCl, 1 mM EDTA, 20 mM NaF, 100 mM Na2VO3, 0.5% of NP40, 1% of Triton X-100, 1 mM EGTA, Pefabloc, protease inhibitor cocktail 11836170001 RocheDiagnostics, Phosphatase inhibitor cocktail set II Calbiochem). The cells are then scrapped and the lysate transferred into QIAshredder tubes (cat No. 79656 Qiagen) for centrifugation at 13,000 rpm for 15 min at 4° C. The supernatant is transferred into QIAshredder tubes for a second centrifugation at 13,000 rpm for 5 min in order to completely eliminate the DNA filaments. […] The loading buffer (sample loading buffer 3×ref 7722 Cell signaling technology) with added 1% beta-mercaptoethanol and 50 mM DTT, is added to the samples which are then heated for 10 min at 90° C. The samples are deposited under a volume of 20 μl on NuPAGE 4-12% Bis-Tris gels (cat No. NP0322BOX, Invitrogen). The migration takes place in MOPS buffer (Invitrogen) and is carried out for 1 hour at 180V. […]

LNCaP cells = assay: Antiproliferative activity on LNCaP in medium without steroids (WST-1); conditions: 144 h, 1 nM to 100 μM
Experimental: The anti-proliferative activity of the compounds of the present invention is determined on LNCaP in medium without steroids.
The maintenance of the LNCaP line is carried out under the usual conditions in RPMI, 10% of foetal calf serum, 2 mM of glutamine, 100 U/ml of penicillin, 0.1 mg/ml of streptomycin and 0.01M HEPES, 1 mM sodium pyruvate, 40% of D-glucose.
For the study under conditions without steroids, 24 hours before the seeding the culture medium of the cells is eliminated. The cells are washed with PBS, then incubated in the presence of RPMI medium without phenol red, 10% of foetal calf serum without steroids (treatment with carbon), 2 mM of glutamine, 100 U/ml of penicillin, 0.1 mg/ml of streptomycin and 0.01M HEPES, 1 mM of sodium pyruvate, 40% of D-glucose. • Seeding the plates:
The LNCaP line is seeded at 20,000 cells/well in 90 μl of RPMI medium with 10% foetal calf serum without steroids in 96-well plates coated with poly-D-lysine (Biocoat, Costar). • Treatment of the cells: 24 h after seeding, the cells are treated with 10 μl/well of compound diluted in the culture medium. Experiments showing the dose-effect of the compound are carried out on a scale of 1 nM to 100 μM. The concentrations used are the following: 1 nM/10/30/100/300/1000/3000/10,000/100,000 nM. Testosterone (SIGMA T1500) is used as a reference and tested at the same concentrations. The cells are incubated for 144 h at 37° C., 5% CO2. • Reading: On D6, 10 μL of cell proliferation reagent WST-1 (Roche ref 1644807) is added to each well. After incubation for 2 to 4 hours at 37° C., 5% CO2, the absorbance at 450 nm is measured by spectrophotometry (Envision, Perkin Elmer). • Results: The experiments are carried out in duplicate and the best compounds are tested twice. […] 3. Antiproliferative Activity on DU-145 in Complete Medium: […]

DU145 cells = assay: Antiproliferative activity on DU-145 in complete medium (WST-1); conditions: Homo sapiens, 144 h incubation, read-out: IC50 on the DU145 cells in culture (concentration inhibiting cell proliferation by 50%)
Experimental: The anti-proliferative activity of the compounds of the present invention is determined on DU-145 in complete medium.
Maintenance of the DU-145 line is carried out in DMEM, 10% of foetal calf serum, 2 mM of glutamine, 100 U/ml of penicillin, 0.1 mg/ml of streptomycin. • Seeding the plates: • The DU145 line is seeded at 400 or 800 cells/well in 90 μl of DMEM complete medium in 96-well plates (TPP). • Treatment of the cells: 24 h after the seeding, the cells are treated with 10 μl/well of compound diluted in the culture medium. Experiments showing the dose-effect of the compound are carried out on a scale of 1 nM to 100 μM. The concentrations used are the following: 1 nM/10/30/100/300/1000/3000/10,000/100,000 nM. The cells are incubated for 144 h at 37° C., 5% CO2. • Reading: On D6, 10 μL, of cell proliferation reagent WST-1 (Roche ref 1644807) is added to each well. After incubation for 2 to 4 hours at 37° C., 5% CO2, the absorbance at 450 nm is measured by spectrophotometry (Envision, Perkin Elmer). • Results: The experiments are carried out in duplicate and the best compounds are tested twice. […] 4. Measurement of the Disappearance of the Androgen Receptor

| pIC50 (DU145 cells) | SMILES | effect on the protein expression of the androgen receptor (FIGS. 2-4) (androgen receptor) | effect on the cell proliferation of LNCaP cultured in medium without steroids (FIG. 1) (LNCaP cells) |
| --- | --- | --- | --- |
| – | CN(C)CC(=O)Nc1ccc(N2C(=O)N(CCCCCCCCC[S+]([O-])CCCC(F)(F)C(F)(F)F)C(C)(C)C2=O)cc1C(F)(F)F (centres unmarked) [Example 43a, N-[4-(4,4-dimethyl-2,5-dioxo-3-{9-[(4,4,5,5,5-pentafluoropentyl)sulphinyl]nonyl}imidazolidin-1-yl)-2-(trifluoromethyl)phenyl]-N^2,N^2-dimethylglycinamide] | reduction in the protein expression of the androgen receptor | anti-proliferative activity on the LNCaP cells without an agonist effect |
| < 5.00 | CC(=O)Nc1ccc(N2C(=O)N(CCCCCCCCC[S+]([O-])CCCC(F)(F)C(F)(F)F)C(C)(C)C2=O)cc1C(F)(F)F (centres unmarked) [Example 18, N-[4-(4,4-dimethyl-2,5-dioxo-3-{9-[(4,4,5,5,5-pentafluoropentyl)sulphinyl]-nonyl}imidazolidin-1-yl)-2-(trifluoromethyl)phenyl]acetamide] | reduction in the protein expression of the androgen receptor | anti-proliferative activity on the LNCaP cells without an agonist effect |
